pEC50: −log10 of the molar value.
Experiments:
[1] = molecular target: TR alpha-LBD (thyroid hormone receptor alpha) (Homo sapiens (Human), UniProt P10827); assay: LanthaScreen TR-FRET Thyroid Receptor alpha Coactivator Assay (agonist screening); type: biochemical; conditions: TR alpha-LBD 0.4 nM, 2 hour incubation, average of duplicate runs, read-out: EC50 THRα-FRET
Protocol: (§1) Example B1: Time-Resolved Fluorescence Resonance Energy Transfer (TR-FRET) Assay for Thyroid Hormone Receptor Agonist Screening
(§2) LanthaScreen™ TR-FRET Thyroid Receptor alpha Coactivator Assay kit (ThermoFisher) and LanthaScreen™ TR-FRET Thyroid Receptor beta Coactivator Assay kit (ThermoFisher) were used for agonist compound screening. Compounds in DMSO were diluted using ECHO Liquid Handler (Labcyte Inc.) into 384 plates in 10-point 3-fold series in duplicate (5 micro M final top concentration). Buffer C (ThermoFisher) was added to each well before the 4× mixture of fluorescein-SCR2-2 coactivator (200 nM final concentration), Terbium-labeled anti-GST antibody (2 nM final concentration), and TR alpha-LBD (0.4 nM final concentration) or TR beta-LBD (1.0 nM final concentration) was added. After 2 hour incubation at room temperature in dark, the TR-FRET signal was measured on an EnVision plate reader (PerkinElmer) with excitation at 340 nm and dual emission readout at 495 and 520 nm with the delay time of 100 micro second and the integration time of 200 micro second. The ratio of emission signal at 520 and at 495 was used to calculate EC50 using GraphPad Prism (GraphPad Software). In every batch of compound screening, T3 (L-3,3′,5-Triiodothyronine sodium salt, >95%) (Calbiochem) was used as reference compound. The EC50 of T3 measured were within 3-fold of the reference value provided by the assay kit manufacturer (ThermoFisher Scientific). The Z′ factors measured in every batch of screening using T3 as high percent effect (HPE) control and 0.5% DMSO as zero percent effect (ZPE) control were in the range of 0.5 to 0.8. Compounds' THR-beta selectivity values are derived from T3-selectivity normalized data.

[2] = molecular target: TR beta-LBD (thyroid hormone receptor beta) (Homo sapiens (Human), UniProt P10828); assay: LanthaScreen TR-FRET Thyroid Receptor beta Coactivator Assay (agonist screening); type: biochemical; conditions: for THRβ-Selectivity: THR beta over THR alpha, derived from T3-selectivity normalized data; for pEC50: TR-FRET coactivator assay, TR beta-LBD 1.0 nM, 2 hour incubation, average of duplicate runs, read-out: EC50 THRβ-FRET
Chain of TR beta-LBD (thyroid hormone receptor beta) (P10828 217-461): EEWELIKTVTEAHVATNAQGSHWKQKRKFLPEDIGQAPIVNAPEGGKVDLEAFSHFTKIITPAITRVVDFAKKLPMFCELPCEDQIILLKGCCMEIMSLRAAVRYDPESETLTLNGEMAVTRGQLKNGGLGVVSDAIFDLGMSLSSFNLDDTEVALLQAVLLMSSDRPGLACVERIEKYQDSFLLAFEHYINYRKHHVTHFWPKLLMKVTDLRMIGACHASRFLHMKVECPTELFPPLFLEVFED
Protocol: as §1, §2

Chain of TR alpha-LBD (thyroid hormone receptor alpha) (P10827 other isoform, or with tags, fused parts or gaps del 1-162, other chains not shown): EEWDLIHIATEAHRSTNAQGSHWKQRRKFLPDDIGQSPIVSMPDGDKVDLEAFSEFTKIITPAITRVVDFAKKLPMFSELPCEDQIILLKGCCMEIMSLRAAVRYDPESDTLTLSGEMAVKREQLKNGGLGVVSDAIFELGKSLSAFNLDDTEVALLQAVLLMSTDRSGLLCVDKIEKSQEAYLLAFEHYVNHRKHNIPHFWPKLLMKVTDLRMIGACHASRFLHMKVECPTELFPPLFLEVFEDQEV

Row | pEC50 [1] | THRβ-Selectivity [2] | pEC50 [2] | SMILES
1 | 6.84 | 21.5 | 7.57 | CC(C)c1cc(Oc2c(Cl)cc(NCc3noc(=O)[nH]3)c(F)c2Cl)nn(C)c1=O [Example 27, 3-(((3,5-dichloro-2-fluoro-4-((5-isopropyl-1-methyl-6-oxo-1,6-dihydropyridazin-3-yl)oxy)phenyl)amino)methyl)-1,2,4-oxadiazol-5(4H)-one]
2 | 6.09 | 4.2 | 6.14 | CC(C)c1cc(Oc2c(Cl)cc(NC(C)c3noc(=O)[nH]3)cc2Cl)nn(C)c1=O (single isomer, unassigned) [Example 3-P2, 3-(1-((3,5-dichloro-4-((5-isopropyl-1-methyl-6-oxo-1,6-dihydropyridazin-3-yl)oxy)phenyl)amino)ethyl)-1,2,4-oxadiazol-5(4H)-one]
3 | < 5.30 | >113 | 6.74 | O=C(Nc1cc(Cl)c(Cc2cc(C3CC3)c(=O)[nH]n2)c(Cl)c1)c1noc(=O)[nH]1 [Example 21, N-(3,5-dichloro-4-((5-cyclopropyl-6-oxo-1,6-dihydropyridazin-3-yl)methyl)phenyl)-5-oxo-4,5-dihydro-1,2,4-oxadiazole-3-carboxamide]
4 | 6.99 | 11.7 | 7.50 | CC(C)c1cc(Cc2c(Cl)cc(NCc3noc(=O)[nH]3)cc2Cl)n[nH]c1=O [Example 15, 3-(((3,5-dichloro-4-((5-isopropyl-6-oxo-1,6-dihydropyridazin-3-yl)methyl)phenyl)amino)methyl)-1,2,4-oxadiazol-5(4H)-one]
5 | 6.33 | 13.1 | 7.22 | CC(C)c1cc(Oc2c(Cl)cc(-c3cc(=O)[nH]o3)cc2Cl)nn(C)c1=O [Example 7, 5-(3,5-dichloro-4-((5-isopropyl-1-methyl-6-oxo-1,6-dihydropyridazin-3-yl)oxy)phenyl)isoxazol-3(2H)-one]
6 | 5.36 | 88.9 | 6.63 | CC(O)c1cc(Oc2c(Cl)cc(NC(=O)c3noc(=O)[nH]3)cc2Cl)n[nH]c1=O (stereo not shown) [Example 29, N-(3,5-dichloro-4-((5-(1-hydroxyethyl)-6-oxo-1,6-dihydropyridazin-3-yl)oxy)phenyl)-5-oxo-4,5-dihydro-1,2,4-oxadiazole-3-carboxamide]
7 | 5.72 | – | < 5.30 | CC(C)c1cc(S(=O)(=O)c2c(Cl)cc(NCc3noc(=O)[nH]3)cc2Cl)nn(C)c1=O [Example 19, 3-(((3,5-dichloro-4-((5-isopropyl-1-methyl-6-oxo-1,6-dihydropyridazin-3-yl)sulfonyl)phenyl)amino)methyl)-1,2,4-oxadiazol-5(4H)-one]
8 | 6.90 | 0.7 | 6.54 | CC(C)c1cc(Oc2c(Cl)cc(-c3noc(=O)[nH]3)cc2Cl)n[nH]c1=O [Example 9, 3-[3,5-dichloro-4-[(5-isopropyl-6-oxo-1H-pyridazin-3-yl)oxy]phenyl]-4H-1,2,4-oxadiazol-5-one]
9 | 5.62 | 42.1 | 6.64 | O=C(Nc1cc(Cl)c(Oc2cc(C3CC3)c(=O)[nH]n2)c(Cl)c1)c1noc(=O)[nH]1 [Example 25, N-(3,5-dichloro-4-((5-cyclopropyl-6-oxo-1,6-dihydropyridazin-3-yl)oxy)phenyl)-5-oxo-4,5-dihydro-1,2,4-oxadiazole-3-carboxamide]
10 | 6.72 | 4.8 | 6.94 | Cc1c(NC(=O)c2noc(=O)[nH]2)cc(Cl)c(Oc2cc(C(C)C)c(=O)n(C)n2)c1Cl [Example 11, N-(3,5-dichloro-4-((5-isopropyl-1-methyl-6-oxo-1,6-dihydropyridazin-3-yl)oxy)-2-methylphenyl)-5-oxo-4,5-dihydro-1,2,4-oxadiazole-3-carboxamide]
11 | < 5.30 | – | < 5.30 | CC(C)c1cc(S(=O)(=O)c2c(Cl)cc(NC(=O)c3noc(=O)[nH]3)cc2Cl)nn(C)c1=O [Example 20, N-(3,5-dichloro-4-((5-isopropyl-1-methyl-6-oxo-1,6-dihydropyridazin-3-yl)sulfonyl)phenyl)-5-oxo-4,5-dihydro-1,2,4-oxadiazole-3-carboxamide]
12 | 5.37 | 27.9 | 6.35 | CC[C@@H](O)c1cc(Oc2c(Cl)cc(NC(=O)c3noc(=O)[nH]3)cc2Cl)n[nH]c1=O [Example 32P1, (R)—N-(3,5-dichloro-4-((5-(1-hydroxypropyl)-6-oxo-1,6-dihydropyridazin-3-yl)oxy)phenyl)-5-oxo-4,5-dihydro-1,2,4-oxadiazole-3-carboxamide]
13 | < 5.30 | >15.7 | 6.33 | CC(CO)c1cc(Oc2c(Cl)cc(NC(=O)c3noc(=O)[nH]3)cc2Cl)n[nH]c1=O (stereo not shown) [Example 36, N-(3,5-dichloro-4-((5-(1-hydroxypropan-2-yl)-6-oxo-1,6-dihydropyridazin-3-yl)oxy)phenyl)-5-oxo-4,5-dihydro-1,2,4-oxadiazole-3-carboxamide]
14 | 6.67 | 15.5 | 7.46 | Cn1nc(Oc2c(Cl)cc(NC(=O)c3noc(=O)[nH]3)cc2Cl)cc(C(C)(C)O)c1=O [Example 37, N-(3,5-dichloro-4-((5-(2-hydroxypropan-2-yl)-1-methyl-6-oxo-1,6-dihydropyridazin-3-yl)oxy)phenyl)-5-oxo-4,5-dihydro-1,2,4-oxadiazole-3-carboxamide]
15 | < 5.30 | >7.2 | 5.68 | CC(C)c1cc(C(=O)c2c(Cl)cc(NC(=O)c3noc(=O)[nH]3)cc2Cl)nn(C)c1=O [Example 17, N-(3,5-dichloro-4-(5-isopropyl-1-methyl-6-oxo-1,6-dihydropyridazine-3-carbonyl)phenyl)-5-oxo-4,5-dihydro-1,2,4-oxadiazole-3-carboxamide]
16 | 5.88 | 67.3 | 7.06 | CC(C)c1cc(Oc2c(Cl)cc(NC(=O)c3noc(=O)[nH]3)cc2Cl)n[nH]c1=O [Example 23, N-(3,5-dichloro-4-((5-isopropyl-6-oxo-1,6-dihydropyridazin-3-yl)oxy)phenyl)-5-oxo-4,5-dihydro-1,2,4-oxadiazole-3-carboxamide]
17 | 6.82 | 6.2 | 7.15 | Cc1c(NCc2noc(=O)[nH]2)cc(Cl)c(Oc2cc(C(C)C)c(=O)n(C)n2)c1Cl [Example 12, 3-(((3,5-dichloro-4-((5-isopropyl-1-methyl-6-oxo-1,6-dihydropyridazin-3-yl)oxy)-2-methylphenyl)amino)methyl)-1,2,4-oxadiazol-5(4H)-one]
18 | 5.64 | 7 | 6.05 | CC(C)c1cc(Oc2c(Cl)cc(-c3cc(=O)[nH]o3)cc2Cl)n[nH]c1=O [Example 8, 5-(3,5-dichloro-4-((5-isopropyl-6-oxo-1,6-dihydropyridazin-3-yl)oxy)phenyl)isoxazol-3(2H)-one]
19 | < 5.30 | >84.3 | 6.67 | CC(C)(O)c1cc(Oc2c(Cl)cc(NC(=O)c3noc(=O)[nH]3)cc2Cl)n[nH]c1=O [Example 33, N-(3,5-dichloro-4-((5-(2-hydroxypropan-2-yl)-6-oxo-1,6-dihydropyridazin-3-yl)oxy)phenyl)-5-oxo-4,5-dihydro-1,2,4-oxadiazole-3-carboxamide]
20 | 6.24 | 10.9 | 6.78 | CC(C)c1cc(Oc2c(Cl)cc(NC(=O)c3noc(=O)[nH]3)c(F)c2Cl)n[nH]c1=O [Example 34, N-(3,5-dichloro-2-fluoro-4-((5-isopropyl-6-oxo-1,6-dihydropyridazin-3-yl)oxy)phenyl)-5-oxo-4,5-dihydro-1,2,4-oxadiazole-3-carboxamide]
21 | < 5.30 | >10.4 | 5.58 | C[C@@H](O)c1cc(Oc2c(Cl)cc(NC(=O)c3noc(=O)[nH]3)cc2Cl)n[nH]c1=O [Example 29P1, (R)—N-(3,5-dichloro-4-((5-(1-hydroxyethyl)-6-oxo-1,6-dihydropyridazin-3-yl)oxy)phenyl)-5-oxo-4,5-dihydro-1,2,4-oxadiazole-3-carboxamide]
22 | 6.05 | 19.5 | 6.74 | Cn1nc(Cc2c(Cl)cc(NC(=O)c3noc(=O)[nH]3)cc2Cl)cc(C2CC2)c1=O [Example 22, N-(3,5-dichloro-4-((5-cyclopropyl-1-methyl-6-oxo-1,6-dihydropyridazin-3-yl)methyl)phenyl)-5-oxo-4,5-dihydro-1,2,4-oxadiazole-3-carboxamide]
